Consider 16 compounds from PubChem BioAssay (NCI).

Some test systems named below: CAKI-1 renal; U251 CNS; SN12C renal; UACC-257 melanoma; LOX IMVI melanoma; A549 NSCLC; OVCAR-8 ovarian; OVCAR-3 ovarian; SK-OV-3 ovarian.
Assay in all cases: NCI anticancer screen, dose series, 48 h

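Growth conditions: 96-well plates. Treatment: test compound, 48 hours, 5 concentrations. Analysis: linear interpolation between bracketing concentrations; unreached endpoints set to highest concentration. TGI: concentration producing complete growth inhibition.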

Take `ClC1c2ccccc2C2(c3ccccc3)OOC1(c1ccccc1)O2` (stereo not given): the TGI with CAKI-1 renal was determined as 6.19 µM; in the test on U251 CNS it was 3.59 µM; in the test on SN12C renal it was 2.9 µM; with UACC-257 melanoma it was 3.65 µM; with LOX IMVI melanoma it was 1.31 µM; in the test on A549 NSCLC, 3.64 µM. Moreover, the TGI is 5.16 µM with OVCAR-8 ovarian and 3.3 µM with OVCAR-3 ovarian.
As for `O=C(Oc1ccc2c(-c3ccccc3)c(C(=O)Nc3ccc(Cl)cc3)c(=O)oc2c1)c1ccccc1`, the TGI in the test with U251 CNS, in the test with SN12C renal, in the test with UACC-257 melanoma, in the test with LOX IMVI melanoma, in the test on A549 NSCLC and with OVCAR-8 ovarian was greater than 100 µM each time. For the same compound, the TGI in the test with OVCAR-3 ovarian and with SK-OV-3 ovarian was greater than 100 µM throughout.
For the compound `NC(CCc1ncc(-c2ccccc2)s1)C(=O)O` (stereo not given), the TGI in the test with CAKI-1 renal, in the test on U251 CNS, in the test on SN12C renal, with UACC-257 melanoma, in the test with LOX IMVI melanoma and in the test on A549 NSCLC was greater than 100 µM in each case. Besides, the TGI with OVCAR-8 ovarian, in the test on OVCAR-3 ovarian and in the test on SK-OV-3 ovarian was greater than 100 µM each time.
Regarding `CC(C)CN1CC(C)C(=O)NC1=O` (stereo not given), the TGI with CAKI-1 renal, in the test on U251 CNS, with SN12C renal, in the test with UACC-257 melanoma, with LOX IMVI melanoma and with A549 NSCLC was greater than 100 µM each time. Also, the TGI in the test with OVCAR-8 ovarian and in the test with SK-OV-3 ovarian was greater than 100 µM throughout.
Turning to `OCC(O)COc1c(Cl)cc(Cl)cc1Cl` (stereo not given), the TGI with CAKI-1 renal was greater than 100 µM; in the test on U251 CNS, greater than 100 µM; with SN12C renal, greater than 100 µM; in the test on UACC-257 melanoma it was greater than 100 µM; in the test with LOX IMVI melanoma it was greater than 74.1 µM; in the test with A549 NSCLC, greater than 100 µM. For the same compound, the TGI with OVCAR-8 ovarian, in the test on OVCAR-3 ovarian and with SK-OV-3 ovarian was greater than 100 µM throughout.
For the compound `CCOC(=O)C(=O)Nc1ccccc1OCC`, the TGI in the test with CAKI-1 renal, in the test on U251 CNS, in the test on SN12C renal, with UACC-257 melanoma, in the test on LOX IMVI melanoma and in the test on A549 NSCLC was greater than 100 µM each time. The TGI in the test with OVCAR-8 ovarian, with OVCAR-3 ovarian and with SK-OV-3 ovarian was greater than 100 µM each time.
In the case of `CN1C(=O)CCC1c1ccc2c(c1)oc(=O)n2C` (stereo not given), the TGI in the test on CAKI-1 renal, in the test on U251 CNS, in the test on SN12C renal, with UACC-257 melanoma, in the test with LOX IMVI melanoma and in the test with A549 NSCLC was greater than 100 µM throughout. Besides, the TGI in the test with OVCAR-8 ovarian and with SK-OV-3 ovarian was greater than 100 µM in each case.
Consider `O=C(/C=C/c1ccccc1O)c1cccc2ccccc12`, for which the TGI is greater than 100 µM with CAKI-1 renal; greater than 66.4 µM in the test with U251 CNS; greater than 100 µM in the test on SN12C renal; greater than 100 µM with UACC-257 melanoma; 98.6 µM with LOX IMVI melanoma; greater than 100 µM in the test with A549 NSCLC. Also, the TGI in the test on OVCAR-8 ovarian, in the test on OVCAR-3 ovarian and in the test with SK-OV-3 ovarian was greater than 100 µM in each case.
For the compound `CN(C)C(=S)/N=c1\ss/c(=N\C(=S)N(C)C)n1Cc1ccco1`, the TGI in the test with CAKI-1 renal, in the test with U251 CNS, with SN12C renal, in the test with UACC-257 melanoma, with A549 NSCLC and in the test with OVCAR-8 ovarian was greater than 100 µM each time. This compound also gave a TGI in the test on SK-OV-3 ovarian greater than 100 µM.
On to `Nc1c(C(=O)NC23CC4CC(CC(C4)C2)C3)[n+]([O-])c2ccccc2[n+]1[O-]`, for which the TGI with CAKI-1 renal, with U251 CNS, in the test with SN12C renal, in the test with UACC-257 melanoma, in the test with LOX IMVI melanoma and with A549 NSCLC was greater than 100 µM throughout. Also, the TGI in the test with OVCAR-8 ovarian, in the test with OVCAR-3 ovarian and with SK-OV-3 ovarian was greater than 100 µM in each case.
`O=C1CCNC(=O)NC1`: the TGI with CAKI-1 renal, in the test with U251 CNS, in the test with SN12C renal, in the test with UACC-257 melanoma, in the test with LOX IMVI melanoma and with A549 NSCLC was greater than 100 µM in each case. Besides, the TGI in the test with OVCAR-8 ovarian, in the test on OVCAR-3 ovarian and in the test on SK-OV-3 ovarian was greater than 100 µM throughout.
Regarding `Cn1nc2ccc3nccc(NCCNCCO)c3c2n1`, the TGI is greater than 100 µM in the test on CAKI-1 renal; greater than 100 µM in the test with U251 CNS; greater than 100 µM in the test with SN12C renal; 76.9 µM in the test on UACC-257 melanoma; 43.1 µM with LOX IMVI melanoma; greater than 100 µM in the test with A549 NSCLC. Besides, the TGI with OVCAR-8 ovarian, in the test with OVCAR-3 ovarian and in the test with SK-OV-3 ovarian was greater than 100 µM each time.
For `Cc1cccc(C(C)C)c1NC(=O)CCl`, the TGI with CAKI-1 renal is 91.7 µM; in the test on U251 CNS, greater than 100 µM; in the test on SN12C renal, greater than 100 µM; in the test on UACC-257 melanoma, greater than 100 µM; in the test with LOX IMVI melanoma it was greater than 100 µM; in the test with A549 NSCLC it was greater than 100 µM. Also, the values for the TGI in the test with OVCAR-3 ovarian and in the test on SK-OV-3 ovarian were 59.9 µM and greater than 100 µM, respectively.
On to `CCOC(OCC)C(CC)[Se]c1ccccc1` (stereo not given), for which the TGI in the test with CAKI-1 renal is greater than 100 µM; in the test with U251 CNS, greater than 100 µM; with SN12C renal, greater than 100 µM; in the test with UACC-257 melanoma, greater than 100 µM; in the test with LOX IMVI melanoma it was 21.6 µM; with A549 NSCLC it was greater than 100 µM. Moreover, the TGI with OVCAR-8 ovarian, in the test on OVCAR-3 ovarian and in the test on SK-OV-3 ovarian was greater than 100 µM in each case.
In the case of `COc1cc(C(O)C(=O)c2cnc3cc([N+](=O)[O-])ccc3n2)ccc1O` (stereo not given), the TGI in the test with CAKI-1 renal, in the test with U251 CNS, in the test on SN12C renal, in the test with UACC-257 melanoma, with LOX IMVI melanoma and in the test with A549 NSCLC was greater than 100 µM each time. For the same compound, the TGI with OVCAR-8 ovarian and with SK-OV-3 ovarian was greater than 100 µM each time.
On to `COc1ccc(N=Nc2c(-c3ccccc3)nn(C(=O)CC(=O)Nc3ccccc3Cl)c2-c2ccccc2)cc1`, for which the TGI in the test on CAKI-1 renal, in the test on U251 CNS, with SN12C renal, with UACC-257 melanoma, with LOX IMVI melanoma and in the test with A549 NSCLC was greater than 100 µM in each case. Besides, the TGI in the test with OVCAR-8 ovarian and in the test on OVCAR-3 ovarian was greater than 100 µM throughout.
